Test: Dissociation constant of the compound
Type: physicochemical

Going from `N=C(N)NCCC[C@H](N)C(=O)O` (stereo in doubt; form 1) [ARGININE] to `NC[C@@H]1O[C@H](O[C@H]2[C@@H](O)[C@H](O[C@@H]3[C@@H](O)[C@H](N)C[C@H](N)[C@H]3O[C@H]3O[C@H](CN)[C@@H](O)[C@H](O)[C@H]3N)O[C@@H]2CO)[C@H](N)[C@@H](O)[C@@H]1O` (stereo in doubt; form 1) [FRAMYCETIN], the Kd falls from 60 µM to 1 µM (60-fold). The second binds more tightly here.

Going from `N=C(N)NCCC[C@H](N)C(=O)O` (stereo in doubt; form 2) [ARGININE] to `NC[C@@H]1O[C@H](O[C@H]2[C@@H](O)[C@H](O[C@@H]3[C@@H](O)[C@H](N)C[C@H](N)[C@H]3O[C@H]3O[C@H](CN)[C@@H](O)[C@H](O)[C@H]3N)O[C@@H]2CO)[C@H](N)[C@@H](O)[C@@H]1O` (stereo in doubt; form 2) [FRAMYCETIN], the Kd falls from 1000 µM to 0.1 µM (10000-fold).

Going from `CC(=O)c1ccc2c(c1)N(CCCN(C)C)c1ccccc1S2` [ACEPROMAZINE] to `Nc1ncnc2c1ncn2[C@@H]1O[C@H](COP(=O)(O)O)[C@@H](O)[C@H]1O` [ADENOSINE PHOSPHATE], the Kd rises from 0.1 µM to 2.7 µM (27-fold).

First: O=C(O)CCCC[C@@H]1SC[C@@H]2NC(=O)N[C@@H]21 [BIOTIN]
Second: NC(=O)NCCC[C@H](N)C(=O)O [L-CITRULLINE]
The Kd of the first is 11-fold lower: 6 µM for the first, 68 µM for the second.

Going from `NC[C@H]1O[C@H](O[C@H]2[C@H](O)[C@@H](O)[C@H](N)C[C@@H]2N)[C@H](N)[C@@H](O)[C@@H]1O` [NEAMINE] to `NC[C@@H]1O[C@H](O[C@H]2[C@@H](O)[C@H](O[C@@H]3[C@@H](O)[C@H](N)C[C@H](N)[C@H]3O[C@H]3O[C@H](CO)[C@@H](O)[C@H](O)[C@H]3N)O[C@@H]2CO)[C@H](N)[C@@H](O)[C@@H]1O` [PAROMOMYCIN], the Kd falls from 1 µM to 0.2 µM (5-fold).

`Cc1cc2nc3c(=O)[nH]c(=O)nc-3n(C[C@H](O)[C@H](O)[C@H](O)COP(=O)(O)O)c2cc1C` [RIBOFLAVIN 5'-PHOSPHATE] and `Cn1c(=O)c2[nH]cnc2n(C)c1=O` [THEOPHYLLINE] are within 1.5-fold of each other in Kd: 0.5 µM for the first, 0.4 µM for the second.

Compared with `NC[C@H]1O[C@H](O[C@H]2[C@H](O)[C@@H](O[C@H]3O[C@H](CO)[C@@H](O)[C@H](N)[C@H]3O)[C@H](N)C[C@@H]2N)[C@H](N)C[C@@H]1O` [TOBRAMYCIN], GENTAMICIN is 11-fold higher in Kd: 0.0009 µM for the first, 0.01 µM for the second.
